Assays:
SETVI (Foxtail, Green) = assay: Postemergence herbicidal evaluation; type: in vivo, Setaria viridis; settings: for SETVI herbicidal rating: postemergence
In short: (§1)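 Each compound, dispersed in an acetone/water mix (50/50) carrying 0.5% TWEEN 20, is nozzle-sprayed at 40 psi on approximately two-week-old seedlings at about 0.0156–0.500 kg/ha. Plants are assessed 4–5 weeks afterward on a 0–9 scale relative to control; duplicate tests are averaged.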

ORYSAT (Rice, Tebonnet) = assay: Postemergence herbicidal evaluation; type: in vivo, Oryza sativa, (L.) Tebonnet; settings: for ORYSAT herbicidal rating: postemergence
In short: as §1

MOOVA (Monochoria) = assay: Preemergence weed control under flooded paddy conditions; type: in vivo, Monochoria vaginalis; settings: rated 3-4 weeks after treatment
In short: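 Seeds or propagules sown in top 0.5 cm of silt loam soil, flooded 1.5 to 3 cm above surface throughout. Compound in 50/50 v/v aqueous/acetone pipetted into flood water at about 0.0313 to 0.500 kg/ha. Visual 0-9 rating versus control after three to four weeks in greenhouse.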

[1] = tested on: IPOHE (Morningglory, Ivyleaf); assay: Preemergence herbicidal evaluation; type: in vivo, Ipomoea hederacea; settings: rated 4-5 weeks after treatment
In short: (§2)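 Each species is sown separately in potting soil over roughly an inch of soil before any emergence. The soil surface then receives an aqueous acetone spray delivering about 0.0156 to 0.500 kg/ha of compound. After four to five weeks, injury is scored from 0 to 9 relative to a control.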

GALAP (Galium) = assay: Postemergence herbicidal evaluation; type: in vivo, Galium aparine; settings: for GALAP herbicidal rating: postemergence
In short: as §1

CYPSE (Flatsedge) = assay: Postemergence weed control under flooded paddy conditions; type: in vivo, Cyperus serotinus; settings: postemergence weeds
In short: (§3)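 Injury ratings (0–9 scale covering stand, vigor, malformation, size, chlorosis and overall appearance versus control) were made three to four weeks after treatment. Test material, about 0.0313 to 0.500 kg/ha a.i. in 50/50 v/v aqueous/acetone, was added to flood water 1.5 to 3 cm deep over 3 to 5 cm weeds and 1.5 to 2.5 leaf rice.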

[2] = tested on: TRZAWR (Wheat, Winter, cv Riband); assay: Preemergence herbicidal evaluation; type: in vivo, Triticum aestivum; settings: rated 4-5 weeks after treatment
In short: as §2

[3] = tested on: SAGPY (Arrowhead (Pygmaea)); assay: Postemergence weed control under flooded paddy conditions; type: in vivo, Sagittaria pygmaea; settings: postemergence weeds
In short: as §3

[4] = tested on: ECHORC (Watergrass (Calif.)); assay: Preemergence weed control under flooded paddy conditions; type: in vivo, Echinochloa oryzoides; settings: rated 3-4 weeks after treatment
In short: (§4)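 Visual injury scored 0-9 against control three to four weeks post-treatment, greenhouse-grown. Application: acetone/water (50/50) solutions dosed directly into flood water (1.5-3 cm over silt loam, planted top 0.5 cm), roughly 0.0313 to 0.500 kg/ha active ingredient.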

ABUTH (Velvetleaf) = assay: Postemergence herbicidal evaluation; type: in vivo, Abutilon theophrasti; settings: for ABUTH herbicidal rating: postemergence
In short: as §1

ECHCG (Barnyardgrass) = assay: Postemergence herbicidal evaluation; type: in vivo, Echinochloa crus-galli; settings: for ECHCG herbicidal rating: postemergence
In short: as §1

CYPIR (Rice Flatsedge) [5] = assay: Postemergence weed control under flooded paddy conditions; type: in vivo, Cyperus iria; settings: postemergence weeds
In short: as §3

ZEAMX (Corn, Field) = assay: Preemergence herbicidal evaluation; type: in vivo, Zea mays; settings: rated 4-5 weeks after treatment
In short: as §2

CYPIR (Rice Flatsedge) [6] = assay: Preemergence weed control under flooded paddy conditions; type: in vivo, Cyperus iria; settings: rated 3-4 weeks after treatment
In short: as §4

[7] = Rate 0.0313 kg/ha, rated 3 to 4 weeks after treatment
[8] = Rate 0.0625 kg/ha, rated 3 to 4 weeks after treatment
[9] = Rate 0.1250 kg/ha, rated 3 to 4 weeks after treatment
[10] = Rate 0.2500 kg/ha, rated 3 to 4 weeks after treatment
[11] = rate 0.0313 kg/ha, 3-4 weeks after treatment
[12] = rate 0.0625 kg/ha, 3-4 weeks after treatment
[13] = rate 0.1250 kg/ha, 3-4 weeks after treatment
[14] = rate 0.2500 kg/ha, 3-4 weeks after treatment

Structure (SMILES): C=CCN1C(=O)C(CC(=O)OC(C)C)SC1=Nc1cc(-n2c(=O)cc(C(F)(F)F)n(C)c2=O)c(F)cc1Cl (stereo not shown) [Compound 66, Isopropyl 3-allyl-2-{{2-chloro-5-[3,6-dihydro-3-methyl-2,6-dioxo-4-(trifluoromethyl)-1(2H)-pyrimidinyl]-4-fluorophenyl}imino}-4-oxo-5-thiazolidineacetate]
- SETVI herbicidal rating (SETVI (Foxtail, Green); rate 0.0158 kg/ha): 2.0
- SETVI herbicidal rating (SETVI (Foxtail, Green); rate 0.0313 kg/ha): 9.0
- SETVI herbicidal rating (SETVI (Foxtail, Green); rate 0.0625 kg/ha): 9.0
- SETVI herbicidal rating (SETVI (Foxtail, Green); rate 0.1250 kg/ha): 9.0
- ORYSAT herbicidal rating (ORYSAT (Rice, Tebonnet); rate 0.0158 kg/ha): 3.5
- ORYSAT herbicidal rating (ORYSAT (Rice, Tebonnet); rate 0.0313 kg/ha): 5.0
- ORYSAT herbicidal rating (ORYSAT (Rice, Tebonnet); rate 0.0625 kg/ha): 5.5
- ORYSAT herbicidal rating (ORYSAT (Rice, Tebonnet); rate 0.1250 kg/ha): 5.5
- MOOVA herbicidal effect rating (MOOVA (Monochoria); 0.0313 kg/ha): 9.0
- MOOVA herbicidal effect rating (MOOVA (Monochoria); 0.0625 kg/ha): 9.0
- MOOVA herbicidal effect rating (MOOVA (Monochoria); 0.1250 kg/ha): 9.0
- MOOVA herbicidal effect rating (MOOVA (Monochoria); 0.2500 kg/ha): 9.0
- Preemergence herbicidal rating IPOHE ([1]; rate 0.0156 kg/ha): 0.0
- Preemergence herbicidal rating IPOHE ([1]; rate 0.0313 kg/ha): 0.0
- Preemergence herbicidal rating IPOHE ([1]; rate 0.0625 kg/ha): 0.5
- Preemergence herbicidal rating IPOHE ([1]; rate 0.1250 kg/ha): 3.0
- Preemergence herbicidal rating IPOHE ([1]; rate 0.2500 kg/ha): 6.0
- Preemergence herbicidal rating IPOHE ([1]; rate 0.5000 kg/ha): 9.0
- GALAP herbicidal rating (GALAP (Galium); rate 0.0158 kg/ha): 2.0
- GALAP herbicidal rating (GALAP (Galium); rate 0.0313 kg/ha): 3.0
- GALAP herbicidal rating (GALAP (Galium); rate 0.0625 kg/ha): 4.0
- GALAP herbicidal rating (GALAP (Galium); rate 0.1250 kg/ha): 9.0
- Herbicidal rating CYPSE (CYPSE (Flatsedge); [7]): 0.0
- Herbicidal rating CYPSE (CYPSE (Flatsedge); [8]): 0.0
- Herbicidal rating CYPSE (CYPSE (Flatsedge); [9]): 4.0
- Herbicidal rating CYPSE (CYPSE (Flatsedge); [10]): 4.0
- Preemergence herbicidal rating TRZAWR ([2]; rate 0.0156 kg/ha): 0.0
- Preemergence herbicidal rating TRZAWR ([2]; rate 0.0313 kg/ha): 0.0
- Preemergence herbicidal rating TRZAWR ([2]; rate 0.0625 kg/ha): 0.5
- Preemergence herbicidal rating TRZAWR ([2]; rate 0.1250 kg/ha): 0.5
- Preemergence herbicidal rating TRZAWR ([2]; rate 0.2500 kg/ha): 1.0
- Preemergence herbicidal rating TRZAWR ([2]; rate 0.5000 kg/ha): 4.0
- Herbicidal rating SAGPY [3, 7]: 3.0
- Herbicidal rating SAGPY [3, 8]: 4.0
- Herbicidal rating SAGPY [3, 9]: 4.0
- Herbicidal rating SAGPY [3, 10]: 4.0
- ECHORC herbicidal effect rating ([4]; 0.0313 kg/ha): 7.0
- ECHORC herbicidal effect rating ([4]; 0.0625 kg/ha): 7.0
- ECHORC herbicidal effect rating ([4]; 0.1250 kg/ha): 9.0
- ECHORC herbicidal effect rating ([4]; 0.2500 kg/ha): 9.0
- ABUTH herbicidal rating (ABUTH (Velvetleaf); rate 0.0158 kg/ha): 9.0
- ABUTH herbicidal rating (ABUTH (Velvetleaf); rate 0.0313 kg/ha): 9.0
- ABUTH herbicidal rating (ABUTH (Velvetleaf); rate 0.0625 kg/ha): 9.0
- ABUTH herbicidal rating (ABUTH (Velvetleaf); rate 0.1250 kg/ha): 9.0
- ECHCG herbicidal rating (ECHCG (Barnyardgrass); rate 0.0158 kg/ha): 2.0
- ECHCG herbicidal rating (ECHCG (Barnyardgrass); rate 0.0313 kg/ha): 9.0
- ECHCG herbicidal rating (ECHCG (Barnyardgrass); rate 0.0625 kg/ha): 9.0
- ECHCG herbicidal rating (ECHCG (Barnyardgrass); rate 0.1250 kg/ha): 9.0
- Herbicidal rating CYPIR (CYPIR (Rice Flatsedge) [5]; [7]): 6.0
- Herbicidal rating CYPIR (CYPIR (Rice Flatsedge) [5]; [8]): 6.0
- Herbicidal rating CYPIR (CYPIR (Rice Flatsedge) [5]; [9]): 7.0
- Herbicidal rating CYPIR (CYPIR (Rice Flatsedge) [5]; [10]): 7.0
- Preemergence herbicidal rating ZEAMX (ZEAMX (Corn, Field); rate 0.0156 kg/ha): 0.5
- Preemergence herbicidal rating ZEAMX (ZEAMX (Corn, Field); rate 0.0313 kg/ha): 0.0
- Preemergence herbicidal rating ZEAMX (ZEAMX (Corn, Field); rate 0.0625 kg/ha): 0.5
- Preemergence herbicidal rating ZEAMX (ZEAMX (Corn, Field); rate 0.1250 kg/ha): 1.0
- Preemergence herbicidal rating ZEAMX (ZEAMX (Corn, Field); rate 0.2500 kg/ha): 2.5
- Preemergence herbicidal rating ZEAMX (ZEAMX (Corn, Field); rate 0.5000 kg/ha): 7.0
- CYPIR herbicidal effect rating (CYPIR (Rice Flatsedge) [6]; 0.0313 kg/ha): 6.0
- CYPIR herbicidal effect rating (CYPIR (Rice Flatsedge) [6]; 0.0625 kg/ha): 6.0
- CYPIR herbicidal effect rating (CYPIR (Rice Flatsedge) [6]; 0.1250 kg/ha): 7.0
- CYPIR herbicidal effect rating (CYPIR (Rice Flatsedge) [6]; 0.2500 kg/ha): 7.0

Structure (SMILES): COC(=O)CCN1C(=O)CSC1=Nc1cc(-n2c(=O)cc(C(F)(F)F)n(C)c2=O)c(F)cc1Cl [Compound 28, Methyl 2-{{2-chloro-5-[3,6-dihydro-3-methyl-2,6-dioxo-4-(trifluoromethyl)-1(2H)-pyrimidinyl]-4-fluorophenyl}imino}-4-oxo-3-thiazolidinepropionate]
- Postemergence herbicidal rating SETVI (SETVI (Foxtail, Green); Rate 0.0158 kg/ha): 0.0
- Postemergence herbicidal rating SETVI (SETVI (Foxtail, Green); Rate 0.0315 kg/ha): 9.0
- Postemergence herbicidal rating SETVI (SETVI (Foxtail, Green); Rate 0.0630 kg/ha): 9.0
- Postemergence herbicidal rating ORYSAT (ORYSAT (Rice, Tebonnet); Rate 0.0158 kg/ha): 2.5
- Postemergence herbicidal rating ORYSAT (ORYSAT (Rice, Tebonnet); Rate 0.0315 kg/ha): 3.5
- Postemergence herbicidal rating ORYSAT (ORYSAT (Rice, Tebonnet); Rate 0.0630 kg/ha): 6.0
- Herbicidal rating MOOVA (MOOVA (Monochoria); 0.0313 kg/ha): 9.0
- Herbicidal rating MOOVA (MOOVA (Monochoria); 0.0625 kg/ha): 9.0
- Herbicidal rating MOOVA (MOOVA (Monochoria); 0.1250 kg/ha): 9.0
- Herbicidal rating MOOVA (MOOVA (Monochoria); 0.2500 kg/ha): 9.0
- Preemergence herbicidal rating IPOHE ([1]; rate 0.0625 kg/ha): 0.0
- Preemergence herbicidal rating IPOHE ([1]; rate 0.1250 kg/ha): 2.0
- Preemergence herbicidal rating IPOHE ([1]; rate 0.2500 kg/ha): 9.0
- Postemergence herbicidal rating GALAP (GALAP (Galium); Rate 0.0158 kg/ha): 3.0
- Postemergence herbicidal rating GALAP (GALAP (Galium); Rate 0.0315 kg/ha): 7.0
- Postemergence herbicidal rating GALAP (GALAP (Galium); Rate 0.0630 kg/ha): 8.0
- Herbicidal rating CYPSE (CYPSE (Flatsedge); [11]): 0.0
- Herbicidal rating CYPSE (CYPSE (Flatsedge); [12]): 0.0
- Herbicidal rating CYPSE (CYPSE (Flatsedge); [13]): 0.0
- Herbicidal rating CYPSE (CYPSE (Flatsedge); [14]): 0.0
- Preemergence herbicidal rating TRZAWR ([2]; rate 0.0625 kg/ha): 0.0
- Preemergence herbicidal rating TRZAWR ([2]; rate 0.2500 kg/ha): 8.0
- Herbicidal rating SAGPY [3, 11]: 0.0
- Herbicidal rating SAGPY [3, 12]: 0.0
- Herbicidal rating SAGPY [3, 13]: 0.0
- Herbicidal rating SAGPY [3, 14]: 0.0
- Herbicidal rating ECHORC ([4]; 0.0313 kg/ha): 0.0
- Herbicidal rating ECHORC ([4]; 0.0625 kg/ha): 4.0
- Herbicidal rating ECHORC ([4]; 0.1250 kg/ha): 7.0
- Herbicidal rating ECHORC ([4]; 0.2500 kg/ha): 9.0
- Postemergence herbicidal rating ABUTH (ABUTH (Velvetleaf); Rate 0.0158 kg/ha): 9.0
- Postemergence herbicidal rating ABUTH (ABUTH (Velvetleaf); Rate 0.0315 kg/ha): 9.0
- Postemergence herbicidal rating ABUTH (ABUTH (Velvetleaf); Rate 0.0630 kg/ha): 9.0
- Postemergence herbicidal rating ECHCG (ECHCG (Barnyardgrass); Rate 0.0158 kg/ha): 0.0
- Postemergence herbicidal rating ECHCG (ECHCG (Barnyardgrass); Rate 0.0315 kg/ha): 5.0
- Postemergence herbicidal rating ECHCG (ECHCG (Barnyardgrass); Rate 0.0630 kg/ha): 9.0
- Herbicidal rating CYPIR (CYPIR (Rice Flatsedge) [5]; [11]): 9.0
- Herbicidal rating CYPIR (CYPIR (Rice Flatsedge) [5]; [12]): 9.0
- Herbicidal rating CYPIR (CYPIR (Rice Flatsedge) [5]; [13]): 9.0
- Herbicidal rating CYPIR (CYPIR (Rice Flatsedge) [5]; [14]): 9.0
- Preemergence herbicidal rating ZEAMX (ZEAMX (Corn, Field); rate 0.0625 kg/ha): 5.0
- Preemergence herbicidal rating ZEAMX (ZEAMX (Corn, Field); rate 0.1250 kg/ha): 9.0
- Preemergence herbicidal rating ZEAMX (ZEAMX (Corn, Field); rate 0.2500 kg/ha): 8.0
- Herbicidal rating CYPIR (CYPIR (Rice Flatsedge) [6]; 0.0313 kg/ha): 9.0
- Herbicidal rating CYPIR (CYPIR (Rice Flatsedge) [6]; 0.0625 kg/ha): 9.0
- Herbicidal rating CYPIR (CYPIR (Rice Flatsedge) [6]; 0.1250 kg/ha): 9.0
- Herbicidal rating CYPIR (CYPIR (Rice Flatsedge) [6]; 0.2500 kg/ha): 9.0
